Experimental data as given in PMC11680018, “Study of Cytotoxicity of Spiro-Fused [3-Azabicyclo[3.1.0]hexane]oxindoles and Cyclopropa[a]pyrrolizidine-oxindoles Against Tumor Cell Lines” (Pharmaceuticals, 2024).
Where two headings read alike, the source gives them in different places.

Legend:
K562 cells = assay: Cell cycle analysis by flow cytometry; assay type: cell-based, human; conditions: 24 h; for K562 cells in SubG1 phase: control 4.5 ± 0.9; for K562 cells in G2/M phase: control 23.1 ± 1.7; for K562 cells in S phase: control 31.9 ± 1.0; for K562 cells in G0/G1 phase: control 40.5 ± 1.3
From the text: Since growth inhibition may be a result of cell cycle arrest at a particular point, the specific antiproliferative activity of several cycloadducts was further evaluated by flow cytometry to study their impact on the progression of the cell cycle in K562 cells. The assay utilizes propidium iodide-based staining of DNA content to distinguish and measure the accumulation of cells in each cell cycle phase (SubG, G0/G1, S and G2/M).
The distribution of K562 cells in the G0/G1-, S- and G2/M-phases of the cell cycle was obtained by quantification of DNA content using flow cytometry in DAPI-stained cells. Briefly, cells were seeded at a density of 5 × 10^4 cells per well in 24-well plates. […] After incubation with drugs, the cells were harvested by pipetting. This was followed by treatment with 0.2 mg/mL saponin (Fluka, Waltham, MA, USA) and 0.05 mg/mL DAPI (Thermo scientific, Rockford, IL, USA). After washing, the samples were analyzed using a standard flow cytometer (BD FACSCanto II, Becton Dickinson, San Jose, CA, USA). A total of 10,000 events were acquired for the samples. Data processing was performed using the BD FACSDiva 9.0 software.

[1] = system: cervical carcinoma (HeLa) cell line; assay: MTS cell proliferation assay, HeLa; assay type: cell-based, human; conditions: for IC50: Homo sapiens, HeLa, MTS; for SI (selectivity index) HeLa: ratio of cytotoxicity PBMC / HeLa, calculated at 72 h
Method: (§1) Cancer cell lines are valuable in vitro model systems that are widely used in cancer research and drug discovery. Their use is mainly linked to their possibility to provide for experimental purposes an unlimited source of biological material. Here, the 24 and 72 h in vitro MTS assay was used to determine the antiproliferative activity of synthesized spiro-fused cyclopropa[a]pyrrolizidine-2,3′-oxindoles and [3-azabicyclo[3.1.0]hexane]-oxindoles against human erythroleukemia (K562), acute T cell leukemia (Jurkat), cervical carcinoma (HeLa), melanoma (Sk-mel-2), breast cancer adenocarcinoma (MCF-7) as well as mouse colon carcinoma (CT26) cell lines. […] The full results of these investigations are presented in the Supporting Information Figures S1–S6. […] An evaluation of the cytotoxicity of the selected compounds towards normal cells (peripheral blood mononuclear cells) was performed additionally to understand their respective relative selectivities. The selectivity index was obtained using the ratio of measured cytotoxicity between the PBMC cells and each of the cancer cell lines, and the results are presented in Table 3.
(§2) The human erythroleukemia (K-562), cervical carcinoma (HeLa) as well as mouse colon carcinoma (CT26) cell lines were obtained from the Bank of Cell Cultures of the Institute of Cytology of the Russian Academy of Sciences; the human melanoma (Sk-mel-2) cell line was obtained from the Bank of Cell Cultures of the Institute of Cytology and Genetics, Siberian Branch of the Russian Academy of Sciences. The acute T cell leukemia (Jurkat) cell line was obtained from the Bank of Cell Cultures of the Institute of Immunology of the Russian Academy of Medical Sciences. The peripheral blood mononuclear cells (PBMC) were isolated from the blood of healthy donors. K-562, Jurkat, MCF-7, PBMC and CT26 cells were grown on RPMI medium (Hyclone, GE Healthcare Life Sciences, Logan, UT, USA) supplemented with 10% (v/v) fetal bovine serum (Hyclone, GE Healthcare Life Sciences, Logan, UT, USA) and gentamicin (Sigma-Aldrich, St. Louis, MO, USA) at 37 °C in a humidified atmosphere with 5% CO2. HeLa and Sk-mel-2 cells were cultured with the same supplements and conditions in DMEM medium (Hyclone, GE Healthcare Life Sciences, Logan, UT, USA).
(§3) To evaluate the in vitro toxicity of the compounds synthesized, cells were seeded into 96-well plates at a density of 5 × 10^3 cells per well. On the next day, the tested compounds were added to the wells at concentrations ranging from 1 to 30 μg/mL, followed by incubation for 1 and 3 days. Cell proliferation was determined by adding 20 μL of MTS reagent (BioVision, Milpitas, CA, USA) stock solution per well. The plates were incubated for 2 h at 37 °C in a humidified, 5% CO2 atmosphere. The plates were then read at 495 nm using a plate spectrophotometer (Multiskan GO, Thermo Fisher Scientific, Waltham, MA, USA). All samples were measured in triplicate.

[2] = system: peripheral blood mononuclear cells (PBMC); assay: MTS cytotoxicity towards normal cells, PBMC; assay type: cell-based; conditions: Homo sapiens
Method: as §1, §2, §3

[3] = system: mouse colon carcinoma (CT26) cell line; assay: MTS cell proliferation assay, CT26; assay type: cell-based; conditions: for IC50: Mus musculus, MTS; for SI (selectivity index) CT26: ratio of cytotoxicity PBMC / CT26, calculated at 72 h
Method: as §1, §2, §3

[4] = system: human erythroleukemia (K562) cell line; assay: MTS cell proliferation assay, K562; assay type: cell-based; conditions: for IC50: Homo sapiens, MTS; for SI (selectivity index) K562: ratio of cytotoxicity PBMC / K562, calculated at 72 h
Method: as §1, §2, §3

[5] = system: human melanoma (Sk-mel-2) cell line; assay: Cell motility by scratch test; assay type: cell-based; conditions: 10 μg/mL, 36 h, serum-free DMEM; nontreated cells 69.5 ± 17.2
Method: To assess the potential ability of spiro-fused [3-azabicyclo[3.1.0]hexane]oxindoles 4, 11, 12, 18, 24 and cyclopropa[a]pyrrolizidine-2,3′-oxindole 2 to inhibit metastasis associated with cell motility, a scratch test was performed on the human melanoma (Sk-mel-2) cell line. Different fields were analyzed by bright field, and each scratch area was photographed at 0 and 36 h for non-toxic and fast cell visualization. Nontreated Sk-mel-2 cells filled 69.5 ± 17.2, 41.5 ± 5.3, 59.7 ± 8.1, 49.3 ± 5.3, 43.0 ± 12.6, 26.1 ± 2.5 and 55.9 ± 8.6% of the scratched strip while under treatment with spiro-fused oxindole derivatives 2, 4, 11, 12, 18 and 24 cells, respectively.
Cells were seeded at a density of 5 × 10^5 cells per dish onto petri dishes and grown to confluency. A 200 μL pipette tip was used to make scratch wounds and detached cells were removed after that by washing with phosphate-buffered saline. Culture media was replaced with serum-free DMEM in order to inhibit cell proliferation. Compounds to be screened were added at a dose of 10 μg/mL to the cultures and incubated for 36 h. Different fields were analyzed by bright field, and each scratch area was photographed at 0 and 36 h. Images were captured using an Axio Observer Z1 confocal microscope (Carl Zeiss MicroImaging GmbH, Jena, Germany). The percent of wound closure in five randomly chosen fields was calculated with ImageJ software, 1.52v.

[6] = system: melanoma (Sk-mel-2) cell line; assay: MTS cell proliferation assay, Sk-mel-2; assay type: cell-based, human; conditions: for IC50: Homo sapiens, MTS; for SI (selectivity index) Sk-mel-2: ratio of cytotoxicity PBMC / Sk-mel-2, calculated at 72 h
Method: as §1, §2, §3

[7] = system: breast cancer adenocarcinoma (MCF-7) cell line; assay: MTS cell proliferation assay, MCF-7; assay type: cell-based, human; conditions: for IC50: Homo sapiens, MTS; for SI (selectivity index) MCF-7: ratio of cytotoxicity PBMC / MCF-7, calculated at 72 h
Method: as §1, §2, §3

[8] = system: acute T cell leukemia (Jurkat) cell line; assay: MTS cell proliferation assay, Jurkat; assay type: cell-based, human; conditions: for IC50: Homo sapiens, Jurkat, MTS; for SI (selectivity index) Jurkat: ratio of cytotoxicity PBMC / Jurkat, calculated at 72 h
Method: as §1, §2, §3

[9] = system: HeLa cells actin cytoskeleton; assay: Actin cytoskeleton staining, confocal microscopy, HeLa; assay type: cell-based, human; conditions: 10 μg/mL, 24 h
Method: It was found using confocal microscopy that incubation with spiro-fused [3-azabicyclo[3.1.0]hexane]oxindoles 4, 8, 17, 18, 22, 24 and cyclopropa[a]pyrrolizidine-2,3′-oxindole 2 led to significant changes in the HeLa cells’ actin cytoskeleton structure leading to the disappearance of stress fibers (granular actin was distributed diffusely in the cytoplasm in up to 38% of treated cells) and changes in the number of filopodia-like deformations (reduced from 93% in control cells to 64% after treatment). The impact on the Sk-mel-2 cells’ actin cytoskeleton structure was even greater: granular actin was distributed diffusely in the cytoplasm in up to 90% of treated cells while the number of filopodia-like deformations was reduced by up to 23%. Such changes in the cytoskeleton may indicate a change in the motor activity of cells, which may indicate a decrease in the ability of tumor cells to metastasize.
HeLa cells were seeded at a density of 2 × 10^5 cells per dish onto a petri dish with cover slips and incubated for 24 h. After that, cells were treated with chosen compounds (10 μg/mL) for 24 h. The medium was removed and cells were fixed with 4% paraformaldehyde (Sigma-Aldrich, St. Louis, MO, USA), washed three times with PBS, and permeabilized with 0.3% Triton-X100 (Sigma-Aldrich, St. Louis, MO, USA). The cells were rinsed three times with PBS. Actin filaments (microfilaments) were stained with rhodamine–phalloidin (Invitrogen, Carlsbad, CA, USA) at 37 °C for 15 min. The samples were rinsed three times with PBS, followed by embedding in Fluoroshield medium (Sigma-Aldrich, St. Louis, MO, USA). Cells were imaged using an Axio Observer Z1 confocal microscope (Carl Zeiss MicroImaging GmbH, Jena, Germany). In each experiment, at least 30 cells were imaged. Images were analyzed by a pathologist blinded to the treatment mode used for each group using ImageJ software, 1.52v.

[10] = read-out: IC50 CT26 24 h, CT26, 24 h
[11] = CT26, 72 h, read-out: IC50 CT26 72 h
[12] = read-out: IC50 K562 24 h, K562, 24 h
[13] = K562, 72 h, read-out: IC50 K562 72 h
[14] = read-out: IC50 Sk-mel-2 24 h, Sk-mel-2, 24 h
[15] = Sk-mel-2, 72 h, read-out: IC50 Sk-mel-2 72 h
[16] = MCF7, read-out: IC50 MCF-7 24 h, MCF-7, 24 h
[17] = MCF7, MCF-7, 72 h, read-out: IC50 MCF-7 72 h
[18] = read-out: IC50 Jurkat 24 h, 24 h
[19] = 72 h, read-out: IC50 Jurkat 72 h

Row | SMILES | IC50 ([1]; read-out: IC50 HeLa 24 h, 24 h) [µM] | IC50 ([1]; 72 h, read-out: IC50 HeLa 72 h) [µM] | SI (selectivity index) HeLa [1] | IC50 ([2]; 72 h, read-out: IC50 PBMC 72 h) [µM] | IC50 ([2]; read-out: IC50 PBMC 24 h, 24 h) [µM] | IC50 [3, 10] [µM] | IC50 [3, 11] [µM] | SI (selectivity index) CT26 [3] | IC50 [4, 12] [µM] | IC50 [4, 13] [µM] | SI (selectivity index) K562 [4] | Part of the scratched strip filled by Sk-mel-2 cells [5] [%] | IC50 [6, 14] [µM] | IC50 [6, 15] [µM] | SI (selectivity index) Sk-mel-2 [6] | IC50 [7, 16] [µM] | IC50 [7, 17] [µM] | SI (selectivity index) MCF-7 [7] | IC50 [8, 18] [µM] | IC50 [8, 19] [µM] | other results
1 | COc1cccc2c1C(=O)c1c(O)c3c(c(O)c1C2=O)C[C@@](O)(C(=O)CO)C[C@@H]3O[C@H]1C[C@H](N)[C@H](O)[C@H](C)O1 [Doxorubicin, reference compound] | 4 ± 1 | 1 ± 0.1 | 9 | 9 ± 1 | 11 ± 1 | 19 ± 3 | 6 ± 1 | 2 | 16 ± 3 | 1 ± 0.4 | 9 |  |  |  |  |  |  |  |  |  | K562 cells in SubG1 phase (K562 cells; 1 μg/mL): 43.0 ± 1.0%; K562 cells in G2/M phase (K562 cells; 1 μg/mL): 2.2 ± 0.3%; K562 cells in S phase (K562 cells; 1 μg/mL): 8.8 ± 1.7%; K562 cells in G0/G1 phase (K562 cells; 1 μg/mL): 45.6 ± 0.8%; K562 cells in SubG1 phase (K562 cells; 5 μg/mL): 93.1 ± 0.7%; K562 cells in G2/M phase (K562 cells; 5 μg/mL): 0.2 ± 0.1%; K562 cells in S phase (K562 cells; 5 μg/mL): 0.8 ± 0.1%; K562 cells in G0/G1 phase (K562 cells; 5 μg/mL): 5.9 ± 0.6%
2 | COC(=O)C1C2(c3ccccc3)C3CCCN3C3(C(=O)Nc4ccc(Cl)cc43)C12c1ccccc1 (centres unmarked) [Compound 12] |  |  |  |  |  |  |  |  |  |  |  | 43.0 ± 12.6 |  |  |  |  |  |  |  |  | 
3 | CC[C@H](C)C1NC2(C(=O)Nc3ccccc32)C2(c3ccccc3)C(c3ccccc3)C12c1ccccc1 (some centres unmarked) [Compound 23] | > 40 | > 40 | 3 | 165 ± 16 | 177 ± 20 | > 40 | > 40 | 3 | > 40 | 21 ± 2 | 8 |  | > 40 | > 40 | 3 | > 40 | > 40 | 3 | 25 ± 2 | 12 ± 1 | SI (selectivity index) Jurkat [8]: 13
4 | CC(C)CC1NC2(C(=O)Nc3ccccc32)C2(c3ccccc3)C(c3ccccc3)C12c1ccccc1 (centres unmarked) [Compound 22] | > 40 | 23 ± 2 | 3 | 64 ± 6 | 132 ± 16 | > 40 | 39 ± 3 | 2 | > 40 | 12 ± 1 | 5 |  | > 40 | 23 ± 2 | 3 | > 40 | > 40 | 1 | 21 ± 2 | 4 ± 1 | HeLa cells with filopodia-like deformations ([9]; control cells 93%, lowest value over the compounds): ≥ 64%; HeLa cells with granular actin distributed diffusely in the cytoplasm (stress fibers disappeared) ([9]; maximum over the compounds): up to 38%; SI (selectivity index) Jurkat [8]: 16
5 | COC(=O)C1C2(c3ccccc3)C(Cc3c[nH]c4ccccc34)NC3(C(=O)Nc4ccccc43)C12c1ccccc1 (centres unmarked) [Compound 11] | 15 ± 2 | 22 ± 2 |  |  |  | > 40 | 19 ± 2 |  | 7 ± 1 | 7 ± 1 |  | 49.3 ± 5.3 | 33 ± 3 | 15 ± 1 |  |  |  |  |  |  | 
